Results as given in patent US8236851B2, “Microspherules containing a pleuromutilin derivative” (Novartis AG, priority 2001, dated 2012).
Structures can show the parent of a compound that is named as a salt.

Columns and labels:
[1] = set-up: species or system piglets; conditions: in vivo, po
Procedure: Bioavailability studies indicate that the microspherules pass through the stomach in an intact state and release the active ingredient only in the alkaline medium of the intestine. […] After 8-10 hours, the curve then falls off again and approaches zero. In case b), with the microspherules, the increase in active ingredient concentration begins after a delay of about 1-2 hours, reaches its maximum value after about 3-4 hours and, after about 10-12 hours, falls towards zero. […] This new method makes available a form of administration that is gentle on the stomach and that makes oral therapy even more efficient.

[2] = Stability of valnemulin in uncompressed feed; assay type: physicochemical

C=C[C@]1(C)C[C@@H](OC(=O)CSC(C)(C)CNC(=O)[C@H](N)C(C)C)[C@]2(C)[C@H](C)CC[C@]3(CCC(=O)[C@H]32)[C@@H](C)[C@@H]1O [free valnemulin hydrochloride, valnemulin]
time after which the plasma concentration curve falls towards zero [1]: 8 to 10 h
time at which plasma active ingredient concentration reaches its maximum value [1]: 2 to 3 h
loss of valnemulin in uncompressed feed [2]: the same losses
